Experimental findings from a melting point compilation (Tetko et al.; mined from patent text by program, amines drawn as free bases though some values may be those of a salt) are described below.

For orientation: melting point means the temperature of the solid-liquid transition.

For `O=c1[nH]cc(Cc2ccccc2)c2ccccc12`, the melting point lay in the range of 217 to 220 °C.
`Nc1cc(-c2ncnc(C(F)F)c2Cl)c(F)cc1Cl` showed a melting point of 106 to 108 °C.
The value for `COc1ccccc1N1CCN(C(=O)[C@@H](Cc2ccccc2)NC(=O)OC(C)(C)C)CC1` was 95 to 97 °C; that for `O=C1NC(=S)NC(=O)C1c1ccccc1F` was greater than 240 °C.
In the case of `COCCN1CCc2ccc(OC)c(Nc3ncc(Cl)c(N[C@@H]4CCCC[C@H]4NS(C)(=O)=O)n3)c2CC1`, the melting point lay in the range of 93 to 100 °C.
Molecule `CCN(Cc1ccc2nc(C)[nH]c(=O)c2c1)C(N)=S` displayed a melting point of 186 to 187 °C.
In the case of `CCc1cn(C2CC(OC(C)=O)C(CNC(=O)Cc3ccccc3NC(C)=O)O2)c(=O)[nH]c1=O` (stereo not drawn) it was 143 to 145 °C.
The value for `CCNC(=N)NC(=O)Cc1ccc(Cl)cc1` was 146 to 147 °C; that for `COc1ccc(S(=O)(=O)NCCc2ccc(CC(=O)O)cc2)cc1` was 160 to 162 °C; that for `CCc1cccc(CC)c1N1C(=S)N(C)C(O)C1O` (stereo not drawn) was 87 to 90 °C.
The value for `COc1ccc(/C=C/C(=O)N(C)CC(O)CO)cc1` (stereo not drawn) was 81 to 83 °C; that for `Cc1nc(N2CCN(CC3CC3(F)F)C2=O)sc1C(=O)O` (stereo not drawn) was 210 to 215 °C.
Turning to `N#CSc1nc(Cl)ncc1I`, the melting point is 185 to 186 °C.
The value for `CCOC(=O)CCCNC(=O)c1cc(Br)no1` was 72 to 73 °C; that for `CC(C)(C)N1C[C@H](O)C[C@H]1C(=O)NC(=O)OCc1ccccc1` was 128 to 130 °C.
In the case of `O=C(O)c1cc(O)c(C(=O)c2ccc(Cl)cc2)c([N+](=O)[O-])c1` it was 266 to 268 °C; in that of `CC(=O)N1CCN=C1Nc1cc(C)nn1C(C)C`, 145 to 147 °C.
Consider `NCc1c(Nc2ccccc2)cccc1Oc1ccccc1`, for which the melting point lay within 113 to 116 °C.
In the case of `COC(=O)c1cc(N)cc(C=NO)c1` it was 160 to 162 °C.
In the case of `CC(=O)Nc1ccc(C(=O)NC2=Nc3cc(N4CCOCC4)ccc3C3=NCCN23)cn1` it was 228 °C; in that of `O=C(O)CCc1cn(Cc2ccc3cc(OCc4ccccc4F)ccc3c2)nc1-c1ccccc1`, 152 to 153 °C.
`CC(=O)OCc1nc([N+](=O)[O-])c(Br)n1C` returned a melting point of 92 to 97 °C.
With `OCC(CCc1ccc(Cl)cc1)Cn1cncn1` (stereo not drawn), the melting point fell in the range of 40 to 45 °C.
The molecule `COC(=O)c1c(S(C)(=O)=O)ccc(C(=O)C2C(=O)CCCC2=O)c1Cl` displayed a melting point of 160 to 162 °C.
The value for `NC1=NS(=O)(=O)c2cccc(Cl)c21` was 218 °C; that for `Cc1cccc(-c2nc3ccc(N(C)C)nn3c2-c2ccnc(NC3CCCCC3)c2)c1` was 191 to 192 °C.
Take `CNC(=O)c1ccc(-c2ccc(NC(=O)NCc3cccnc3)cc2)nc1NCc1ccncc1`: the melting point is 218 to 219 °C.
`CN1C(=O)C2(COc3cc4c(cc32)OCO4)c2ccccc21` (stereo not drawn) yielded a melting point of 142 to 144 °C.
The value for `Nc1n[nH]c2cc(C(F)(F)F)ccc12` was 168 to 169 °C; that for `SCc1cn(C(c2ccccc2)(c2ccccc2)c2ccccc2)nn1` was 140 to 141 °C.
As to `Cc1cccc2c1C1=C(CC2)NC(=O)CC1`, the melting point lay in the range of 168 to 169 °C.
In the case of `CC1CCC(C)C1C(=O)O` (stereo not drawn) it was 45 °C; in that of `OC(c1cc(-c2ccc(F)cc2)c(-c2ccc(F)cc2)[nH]1)(C(F)(F)F)C(F)(F)F`, 112 to 113 °C; in that of `COC(=O)CCc1cc(C(=O)c2ccc(OC)cc2)c(OC)cc1OC`, 114 to 117 °C.
As for `CC(=O)C1CCC2C3CCC4=CC(=O)C=CC4(C)C3CCC12C` (stereo not drawn), the melting point was in the range of 183 to 185 °C.
In the case of `CCCCCCCCCCCCC1=C(OC(C)=O)C(=O)c2c(Cl)cccc2C1=O` it was 57 to 59 °C; in that of `CS(=O)(=O)c1c(C(=O)c2cnoc2C2CC2)ccc(Br)c1F`, 144 to 145 °C; in that of `O=C(Cc1ccccc1)Nc1ccnc(NC(=O)NCc2ccccn2)c1`, 219 to 220 °C.
Regarding `CN(C)c1ccc(C=CC(=O)c2ccc(OCCO)cc2)cc1`, the melting point was 127 to 128 °C.
The value for `CCc1ccc2c3c(c(=O)oc2c1)CNCC3` was 80 to 85 °C; that for `CC(=O)OCC1OC(c2nc(C(N)=O)cs2)C(OC(C)=O)C1OC(C)=O` (stereo not drawn) was 103 °C; that for `COc1cc(Nc2c(C#N)cnc3cc(-c4ccc(C=O)cc4)ccc23)c(Cl)cc1Cl` was 248 to 251 °C.
As to `Oc1ccc(-c2nnn(-c3ccc(C(F)(F)F)cc3F)c2Cl)c(Cl)c1`, the melting point is 150 to 152 °C.
The value for `Cc1nnc2n1-c1ccc(C#CCn3cnc4ccccc43)cc1C(c1ccccc1Cl)=NC2` was 165 to 168 °C.
The molecule `N#Cc1cc(C(=O)NNC(=O)c2occc2-c2ccc(OCc3ccccc3)cc2)ccc1O` registered a melting point of 208 to 209 °C.
As to `O=[N+]([O-])c1cnc(Cl)nc1NCCO`, the melting point is 123 to 125 °C.
`CN(C)CCc1[nH]c2ccccc2c1CC#N` gave a melting point of 122 to 127 °C.
In the case of `CCc1cccc(C2=NC(C)(C)CO2)c1C` it was 96 to 98 °C.
In the case of `Cn1nc(N)c2cc3ccc(O)cc3nc21` it was 288 to 290 °C; in that of `N=C(NC=Cc1ccc([N+](=O)[O-])cc1)c1ccccc1`, 163 to 165 °C; in that of `O=C(CCCCCBr)NC1CCCCC1`, 73 to 74 °C.
The value for `CSc1cc2cccc(NS(=O)(=O)c3cccs3)c2[nH]1` was 102 to 103 °C; that for `CC(C)(C)C1CCC(C(=O)Nc2ccncc2)CC1` (stereo not drawn) was 150 to 151 °C.
Take `N#CC(C(N)=S)c1ccc(Cl)c(Cl)c1` (stereo not drawn): the melting point was determined as 143 °C.
The value for `CCCCc1ncc(/C=C2\C(=O)NC(=O)N2Cc2cccs2)n1Cc1ccc(C(=O)O)cc1` was 297 to 299 °C; that for `N#CC1=C(C#N)Sc2nc3cc([N+](=O)[O-])c([N+](=O)[O-])cc3nc2S1` was 230 to 233 °C; that for `O=C(CCCCl)Nc1ccc2[nH]ncc2c1` was 160 to 161 °C.
In turn, `C#CCOC(=O)c1cc(-n2c(=O)c3c(n(C)c2=O)CCC3)c(F)cc1Cl` showed a melting point of 193 to 195 °C.
In the case of `N#CCC(=O)Nc1ccnn1-c1c(Cl)cc(C(F)(F)F)cc1Cl` it was 169 to 175 °C; in that of `O=C1c2cc(Cl)ccc2-n2cnc(-c3noc(CCl)n3)c2[C@@H]2CCN12`, 238 to 241 °C.
The molecule `N=C(N)Nc1nc(C(=O)NCC(=O)NC(CC(=O)O)c2cccnc2)cs1` (racemic) yielded a melting point of 186 °C.
The value for `CC(=O)n1c(=O)n(CCN2CCC(C(=O)c3ccc(F)cc3)CC2)c(=O)c2ccsc21` was 137 to 141 °C.
In the case of `Cc1cc(C2(c3ccc(Cl)cc3)OCCS2)ccc1NC(=O)c1cccc(I)c1C(=O)NC(C)C` (stereo not drawn) it was 214 to 217 °C; in that of `CC(=O)OC(Cn1cncn1)c1ccc(Cl)cc1Cl` (stereo not drawn), 92 to 96 °C.
The value for `O=C(CSc1n[nH]c(-c2ccccc2)n1)C12CC3CC(CC(C3)C1)C2` was 187 to 188 °C; that for `CCC1(C)CC(=O)C(C(=O)Nc2cccc(C(F)(F)F)c2)C(=O)C1` (stereo not drawn) was 81 to 82 °C.
`CC1=NCN(c2csc(Br)c2)O1` registered a melting point of 72 to 73 °C.
`Cc1noc(-c2cccc(I)c2)n1`: the melting point lay within 102 to 103 °C.
Turning to `O=C(O)C1=Cc2ccc3ccccc3c2OC1C(F)(F)F` (stereo not drawn), the melting point is 246 to 249 °C.
For the molecule `CCNc1ccc(C(C)=O)cc1S(N)(=O)=O`, the melting point lay within 201 to 204 °C.
Regarding `CN1CCC(O)(c2cnc3ccccc3c2)CC1`, the melting point is 175 °C.
The value for `CCP1(=O)c2ccccc2CN1c1ccccc1` (stereo not drawn) was 116 to 120 °C.
Take `Cc1ccc(S(=O)(=O)N2CCC(Sc3ccc(F)cc3)CC2)cc1`: the melting point was in the range of 131 to 132 °C.
In the case of `COc1ccc(S(=O)(=O)C2(C(=O)NO)CCN(CCCc3ccccc3)CC2)cc1` it was 143 °C.
`C=C(CCCCCCCCCCCCCC)C(=O)O` showed a melting point of 49.5 to 50 °C.
The value for `COC(=O)N=CNNc1cc(SCC(C)C)ccc1NC(C)=O` was 180 to 184 °C; that for `O=C1C(=O)c2ccc(-c3ccccc3)cc2C2=C1SCC1(CCN(CC(O)COc3ccc(Cl)cc3)CC1)O2` (stereo not drawn) was 93 to 98 °C.
Molecule `Cc1cc(Cl)cc(C)c1NC(=O)Oc1ccccc1` had a melting point of 158 to 160 °C.
The value for `COC(=O)c1cc(C(=O)NCC(C)C)c2cc(Cc3ccc(F)cc3)cnc2c1O` was 178 to 179 °C; that for `CCCc1c(OCCCCCOc2c(C(C)=O)ccc(OCCCC(=O)O)c2CCC)ccc(C(C)=O)c1O` was 61 to 66 °C; that for `COc1cccc(CNc2ncnc3c2sc2nc(N(C)C)c4c(c23)CC(C)(C)OC4)c1OC` was 89.9 to 90.7 °C.
Take `Cc1nc2cccc(S(N)(=O)=O)c2s1`: the melting point fell in the range of 223 to 224 °C.
Molecule `COC(=O)c1nc(CCl)n(-c2ccc(Cl)cc2C(=O)c2ccccc2Cl)n1` displayed a melting point of 130 to 132 °C.
The value for `CC(C)c1ccc2[nH]c3c(c2c1)Cc1ccccc1-3` was 193 °C.
In turn, `c1ccc(COCCCCOCc2ccccc2)cc1` returned a melting point of 18 °C.
Molecule `Cc1ccc(C(SCCN(C)CCCCN=C(NC#N)NCCSCc2csc(NC(=N)N)n2)c2ccccc2)cc1` (stereo not drawn) yielded a melting point of 134 to 140 °C.
As for `C[C@H](Nc1ncnc2[nH]cnc12)c1oc2ccc(Br)cc2c(=O)c1-c1ccccc1`, the melting point was in the range of 151 to 154 °C.
Turning to `CC(=O)CCN1C(=O)c2ccccc2S1(=O)=O`, the melting point was 118 to 119 °C.
For `COCC[C@H]1CN(c2cc(C)cc3c2C=Nc2ccccc2N3)CCN1C`, the melting point was in the range of 100 to 108 °C.
For the molecule `CC(C)(C(=O)O)c1ccc(C(=O)Nc2cn3cc(-c4cn[nH]c4)ccc3n2)cc1`, the melting point is 306 to 307 °C.
In the case of `CCC1(CCSC(C)=O)C(=O)N2CCCC(C(=O)O)N2C1=O` (stereo not drawn) it was 110 to 111 °C.
The value for `CCOc1c(C23OCC(C)(C)C2(C(C)(C)C)OO3)sc2ccc(O[Si](C)(C)C(C)(C)C)cc12` (stereo not drawn) was 106 to 107 °C; that for `CCn1cc(CN(C(=O)C2CCCc3ccc(OCc4ccccc4)cc32)c2ccc(C(C)C)cc2)cn1` (stereo not drawn) was 100 to 101 °C.
